Earlier results, collected in paper PMC9207678 (Journal of Mass Spectrometry and Advances in the Clinical …, 2022).

Details: ratio to insulin, ref [2], [3]

half-life in circulation relative to insulin: 6–10 times
Substance: C-peptide
